Article PMC4008422, “Cytotoxicity and activation of the Wnt/beta-catenin pathway in mouse embryonic stem cells treated with four GSK3 inhibitors” (BMC Research Notes, 2014)
Where two headings read alike, the source gives them in different places.

Assays:
ES-CCE cells = assay: Cell viability assay (MTT), ES-CCE; type: cell-based, mouse; settings: BIO 0.1-1 μM, others 1-10 μM, three days
Method: (§1) The medium was changed daily and the cells were passaged 2–3 times per week. […] A randomized control was performed with basal medium without growth factors and/or small molecules. Physiological activation of the Wnt/beta-catenin-pathway was tested in medium supplemented with 50 ng/ml Wnt3a.
(§2) The viability of the mouse ES cells was determined after exposure to different concentrations of GSK3 inhibitors for three days using the MTT assay. The decrease of MTT activity is a reliable metabolism-based test for quantifying cell viability; this decrease correlates with the loss of cell viability. 2,000 cells were seeded overnight on gelatine-coated 96-well plates in LIF-containing ES cell medium. […] Basal medium without GSK3 inhibitors or DMSO was used as control. All tested conditions were analyzed in triplicates.

Wnt/beta-catenin pathway [1] = assay: Wnt/beta-catenin TOPFlash dual luciferase reporter assay, ES-CCE; type: cell-based, mouse; settings: 48 and 72 h, vs random controls and 50 ng/ml Wnt3a
Method: (§3) The Wnt/beta-catenin reporter assay was performed with the M50 Super 8× TOPFlash and M51 Super 8× FOPFlash vector containing the firefly luciferase gene under the control of TCF/LEF binding sites (M50 Super 8x TOPFlash) or mutated bindings sites (M51 Super 8× FOPFlash). 12,500 cells were seeded overnight on gelatine-coated 96-well plates in LIF-containing ES cell medium. On the next day the cells were transfected using Lipofectamine (Life Technologies) with one of the aforementioned vectors plus pGL4.75 [hRluc/CMV] (Promega) encoding the renilla luciferase reporter gene hRluc as a transfection control. […] The Dual-Luciferase® reporter assay system (Promega) was employed 48 and 72 h after medium change to follow the luminescence reaction using a GloMax®-multi detection system (Promega).
(§4) To assess the activation of the Wnt/beta-catenin signaling pathway by GSK3i, a dual luciferase reporter assay was used (Figure 2A/B). Mouse ES cells were transfected with the M50 TOPflash firefly luciferase vector, comprising seven TCF/LEF binding sites or as a negative control with the M51 FOPflash vector harboring mutated binding sites. To normalize the transfection efficiency, a hRluc/CMV vector with a constitutive expression of the renilla luciferase was used. Mouse ES cells of both lines were incubated with GSK3 inhibitors with concentrations close to the IC50 values calculated for the ES-D3 cell line. Dual luciferase luminescence was measured 48 and 72 h after cultivation with one of the inhibitors.

ES-D3 cells = assay: Cell viability assay (MTT), ES-D3; type: cell-based, mouse; settings: for viability reduced by: three days; for IC50: ES-D3 cells, three day treatment, medium devoid of LIF, reduced serum, read-out: IC50 (half maximal inhibitory concentration, cell viability)
Method: as §1, §2

Brachyury = assay: Immunofluorescence staining of Brachyury in ES-D3 cells; type: cell-based, mouse; settings: for saturation of the concentration-response curve, Brachyury-positive cells: 0-10 μM CHIR-99021 or 0-2.5 μM CHIR-98014; for EC50: read-out: EC50 (Brachyury-positive cells)
Method: Immunofluorescence was performed according to standard procedures. ES cells were treated on 6-well plates with different GSK3 inhibitors and after 48 h 100,000 cells were re-seeded in each cavity of Matrigel-coated glass slides (Zellkontakt, Nörten-Hardenberg, Germany). After 24 h in medium the cells were fixed in 4% (w/v) paraformaldehyde for 45 min at 4°C. Subsequently, the cells were blocked for 20 min in PBS plus 0.2% Triton X-100, 6% BSA, and 1 mg/ml NaBH4. Primary and secondary antibodies were diluted in PBS with 0.1% Triton X-100 and 0.1% BSA. Primary antibodies were incubated on the slides for 2.5 h at room temperature (RT) or overnight at 4°C. Secondary antibodies were incubated on the slides for 1 h at RT. […] Secondary antibodies were obtained from Dianova (Hamburg, Germany). Finally, the slides were mounted with immunoselect antifading mounting medium containing DAPI (Dianova) to counterstain the nuclei. The stained cells were examined using an Olympus IX81 inverted microscope (Olympus, Hamburg, Germany).

T gene = assay: qPCR gene expression of T in ES-D3 cells; type: cell-based, mouse; settings: six day treatment, vs undifferentiated or randomly differentiated cells
Method: Total RNA was isolated from the cells using the RNeasy Kit (Qiagen, Hilden, Germany). Briefly, the cells were lysed in Qiazol (Qiagen), the hydrophilic phase was loaded onto RNA spin columns, and RNA was then prepared as instructed. cDNA synthesis was performed with random hexamer primers and 2 μg of the isolated total RNA following the manufacturer’s instructions. 10–20 ng of cDNA was then loaded in each well of a 384-well plate and specific primers were mixed with the GoTaq® PCR master mix according to the manufacturers’ instructions. Primer sequences were (5’-3’): T fw: […], rev: […], Nanog fw: […], rev: […], and Pou5f1 fw: […], rev: […]. Each qPCR amplification was performed in triplicates and the gathered data were normalized with qBasePlus (Biogazelle, Zwijnaarde, Belgium) against the housekeeping genes G6pdx, Tbp, and Tuba1a[10].

Oct3/4 = assay: Immunofluorescence staining of Oct3/4 in ES-D3 cells; type: cell-based, mouse; settings: three day treatment
Method: Immunofluorescence was performed according to standard procedures. ES cells were treated on 6-well plates with different GSK3 inhibitors and after 48 h 100,000 cells were re-seeded in each cavity of Matrigel-coated glass slides (Zellkontakt, Nörten-Hardenberg, Germany). After 24 h in medium the cells were fixed in 4% (w/v) paraformaldehyde for 45 min at 4°C. Subsequently, the cells were blocked for 20 min in PBS plus 0.2% Triton X-100, 6% BSA, and 1 mg/ml NaBH4. Primary and secondary antibodies were diluted in PBS with 0.1% Triton X-100 and 0.1% BSA. Primary antibodies were incubated on the slides for 2.5 h at room temperature (RT) or overnight at 4°C. Secondary antibodies were incubated on the slides for 1 h at RT. The following primary antibodies were used: anti-Oct3/4 (sc-5279, Santa Cruz Biotechnology, Heidelberg, Germany) and anti-Brachyury (AF2085, R&D Systems, Minneapolis, MN, USA). Secondary antibodies were obtained from Dianova (Hamburg, Germany). Finally, the slides were mounted with immunoselect antifading mounting medium containing DAPI (Dianova) to counterstain the nuclei. The stained cells were examined using an Olympus IX81 inverted microscope (Olympus, Hamburg, Germany).

Wnt/beta-catenin pathway [2] = assay: Wnt/beta-catenin TOPFlash dual luciferase reporter assay, ES-D3; type: cell-based, mouse; settings: 48 and 72 h, vs control and 50 ng/ml Wnt3a
Method: as §3, §4

GSK3 = settings: cell-free system; cited from earlier work
[3] = ES-D3, 5 μM, three day treatment

For O=C1Nc2cc(Br)ccc2/C1=C1/Nc2ccccc2/C1=N\O [BIO], the “toxicity (in words)” value (ES-CCE cells) was “strongly cytotoxic”, the “activation of the Wnt/beta-catenin pathway (luminescence signal)” value (Wnt/beta-catenin pathway [1]; 0.5 μM) was “comparable to that of negative or positive controls” and the “viability reduced by” value (ES-D3 cells; ES-D3, 0.25 μM) was 25.7%. The “viability reduced by” value (ES-D3 cells; ES-D3, 0.5 μM) was 58.7%, the “viability reduced by” value (ES-D3 cells; ES-D3, 0.75 μM) was 68.7% and the “viability reduced by” value (ES-D3 cells; ES-D3, 1 μM) was 83.5%. For the same molecule, the IC50 (ES-D3 cells) was 480 nM, the Brachyury-positive cells (Brachyury; ES-D3, 0.5 μM, three day treatment) was “almost no Brachyury-positive cells” and the “T gene expression induction” value (T gene; ES-D3, 0.5 μM) was “up to 300 fold”. For the same molecule, the “cells positive for Oct3/4” value (Oct3/4; ES-D3, 0.5 μM) was “almost all cells were positive for Oct3/4” and the “activation of the Wnt/beta-catenin pathway (luminescence signal)” value (Wnt/beta-catenin pathway [2]; ES-D3, 0.5 μM) was “did not result in a robust activation of the Wnt/beta-catenin pathway above controls”.
For Cc1c[nH]c(-c2cnc(NCCNc3ccc(C#N)cn3)nc2-c2ccc(Cl)cc2Cl)n1 [CHIR-99021], the “selectivity as GSK3 inhibitor” value (GSK3) is listed as “most selective GSK3 inhibitor”, the “toxicity (in words)” value (ES-CCE cells) is listed as “smallest reduction of the viability” and the “activation of the Wnt/beta-catenin pathway (luminescence signal)” value (Wnt/beta-catenin pathway [1]; 5 μM) is listed as “only a significant increase at 72 h”. For the same molecule, the “viability reduced by” value (ES-D3 cells; ES-D3, 2.5 μM) was 24.7%, the “viability reduced by” value (ES-D3 cells; ES-D3, 5 μM) was 56.3% and the “viability reduced by” value (ES-D3 cells; ES-D3, 7.5 μM) was 61.9%. The “viability reduced by” value (ES-D3 cells; ES-D3, 10 μM) was 69.2%, the IC50 (ES-D3 cells; Mus musculus, 72 h) was 4900 nM and the Brachyury-positive cells (Brachyury; [3]) was “around 43%”. The “saturation of the concentration-response curve, Brachyury-positive cells” value (Brachyury; ES-D3, three day treatment) was 60%, the EC50 (Brachyury; Mus musculus, 72 h) was 3190 nM and the “T gene expression induction” value (T gene; ES-D3, 5 μM) was “up to 2,500 fold”. For the same molecule, the “activation of the Wnt/beta-catenin pathway (luminescence signal)” value (Wnt/beta-catenin pathway [2]; ES-D3, 5 μM) was “significant activation of the Wnt/beta-catenin pathway”.
With Cn1cc(C2=C(c3ccc(Cl)cc3Cl)C(=O)NC2=O)c2ccccc21 [SB-216763] the “toxicity (in words)” value (ES-CCE cells) was “smallest reduction of the viability”, the “activation of the Wnt/beta-catenin pathway (luminescence signal)” value (Wnt/beta-catenin pathway [1]; 5 μM) was “comparable to that of negative or positive controls” and the “viability reduced by” value (ES-D3 cells; ES-D3, 1 μM) was 1.7%. The “viability reduced by” value (ES-D3 cells; ES-D3, 2.5 μM) was 29.8%, the “viability reduced by” value (ES-D3 cells; ES-D3, 5 μM) was 55.6% and the “viability reduced by” value (ES-D3 cells; ES-D3, 7.5 μM) was 56.1%. For the same molecule, the “viability reduced by” value (ES-D3 cells; ES-D3, 10 μM) was 57.2%, the IC50 (ES-D3 cells; Mus musculus, 72 h) was 5700 nM and the “cells double-positive for Brachyury and Oct3/4” value (Brachyury; [3]) was ~ 3%. The “T gene expression induction” value (T gene; ES-D3, 5 μM) was “up to 300 fold”, the “cells positive for Oct3/4” value (Oct3/4; ES-D3, 5 μM) was “all cells were positive for Oct3/4” and the “activation of the Wnt/beta-catenin pathway (luminescence signal)” value (Wnt/beta-catenin pathway [2]; ES-D3, 5 μM) was “significantly increased compared to control cells but not to Wnt3a-incubated cells”.
With CHIR-98014 the “activation of the Wnt/beta-catenin pathway (luminescence signal)” value (Wnt/beta-catenin pathway [1]; 1 μM) was “significant increase of Wnt-signaling after 48 and 72 h”, the “viability reduced by” value (ES-D3 cells; ES-D3, 1 μM) was 52% and the IC50 (ES-D3 cells) was 1100 nM. For the same molecule, the Brachyury-positive cells (Brachyury; ES-D3, 1 μM, three day treatment) was ~50%, the “saturation of the concentration-response curve, Brachyury-positive cells” value (Brachyury; ES-D3, three day treatment) was 50% and the EC50 (Brachyury; ES-D3, three day treatment, counting of stained cells) was 320 nM. The “T gene expression induction” value (T gene; ES-D3, 1 μM) was “up to 2,500 fold” and the “activation of the Wnt/beta-catenin pathway (luminescence signal)” value (Wnt/beta-catenin pathway [2]; ES-D3, 1 μM) was “significant activation of the Wnt/beta-catenin pathway”.
